# Like-named read-outs stand apart in the source and are kept apart here. d = 2'-deoxy (DNA); r = 2'-OH (RNA)
# How the values were obtained:
# Assay type in all cases: cell-based
# [1] = test system: SARS-CoV-2 target gene fragments (Spike, ORF1ab, ORF3A & E & M, N & ORF10 & 3'UTR); settings: for Primary Screening (KD %, 60 ng/well, 48 h, 96 well) 293T / EC50 (pg/ul, 48 h, 96 well) 293T: Table C; for EC50 293T cells: Table D
# [2] = test system: SARS-CoV-2 target gene fragments (Spike, ORF1ab, ORF3A & E & M, N & ORF10 & 3'UTR); settings: for Primary Screening (KD %, 60 ng/well, 48 h, 96 well) A549 / EC50 (pg/ul, 48 h, 96 well) A549: Table C; for EC50 A549 cells: Table D
# [3] = test system: SARS-CoV-2; settings: for block of infection at the lowest concentration tested / inhibition of infection compared to the NS control: concentration curves; for block of infection at the lowest concentration tested: 3 nM; for Duplicate A % Infection / Duplicate B % Infection / Mean % infected / Mean % inhibition / Duplicate A % Inhibition / Duplicate B % Inhibition: primary screen using live virus; for Mean % infected / Mean % inhibition: average of the duplicates; for Mean % inhibition: vs non-silencing controls; for Duplicate A % Inhibition / Duplicate B % Inhibition: compared to the mean of the non-silencing controls; for inhibition of infection compared to the NS control: individual siRNAs at varying concentrations, flat response
substance,measurement,setting,value
"CAAGUCAAACAAAUUUACAdTdT (sense CAAGUCAAACAAAUUUACATT; sugars from the 5' end r19 d2, backbone not given here) [Guangzhou5]","Primary Screening (KD %, 60 ng/well, 48 h, 96 well) 293T",[1],75%
same,"Primary Screening (KD %, 60 ng/well, 48 h, 96 well) A549",[2]; A549,80%
CCACCAACAGAGCCTAAAA [COV18],inhibition of the virus,[3],100%
same,block of infection at the lowest concentration tested,[3],complete block of infection
same,Duplicate A % Infection,[3],9%
same,Duplicate B % Infection,[3],7%
same,Mean % infected,[3],8%
same,Mean % inhibition,[3],68%
same,Duplicate A % Inhibition,[3],59%
same,Duplicate B % Inhibition,[3],76%
same,activity in a primary screen using live virus (ranking in words),[3],best activity
CCAGAACAAACCCAAGGAA [COV13],"Primary Screening (KD %, 60 ng/well, 48 h, 96 well) 293T",[1],84%
same,"EC50 (pg/ul, 48 h, 96 well) 293T",[1],3.1 pg/µL
same,EC50 293T cells,[1],3.1 ng/mL
CCCACCAACAGAGCCTAAA [COV17],block of infection at the lowest concentration tested,[3],complete block of infection
CCCTAATGTGTAAAATTAA [COV23],block of infection at the lowest concentration tested,[3],complete block of infection
CCTAATGTGTAAAATTAAT [COV24],"Primary Screening (KD %, 60 ng/well, 48 h, 96 well) 293T",[1],86%
same,"EC50 (pg/ul, 48 h, 96 well) 293T",[1],2.4 pg/µL
same,EC50 293T cells,[1],2.4 ng/mL
same,block of infection at the lowest concentration tested,[3],complete block of infection
CCTTTGAAAAAGGTGACTA [COV5],"Primary Screening (KD %, 60 ng/well, 48 h, 96 well) 293T",[1],85%
same,"Primary Screening (KD %, 60 ng/well, 48 h, 96 well) A549",[2]; A549,84%
CGACTACTAGCGTGCCTTT [COV6],"Primary Screening (KD %, 60 ng/well, 48 h, 96 well) 293T",[1],78%
same,"EC50 (pg/ul, 48 h, 96 well) 293T",[1],17.9 pg/µL
same,EC50 293T cells,[1],17.9 ng/mL
same,"Primary Screening (KD %, 60 ng/well, 48 h, 96 well) A549",[2]; A549,87%
same,"EC50 (pg/ul, 48 h, 96 well) A549",[2]; A549,0.9 pg/µL
same,EC50 A549 cells,[2],0.9 ng/mL
same,inhibition of infection compared to the NS control,[3],~50%
CGCTTCGATTGTGTGCGTA [COV9],"Primary Screening (KD %, 60 ng/well, 48 h, 96 well) 293T",[1],88%
same,"Primary Screening (KD %, 60 ng/well, 48 h, 96 well) A549",[2]; A549,74%
same,inhibition of infection compared to the NS control,[3],~50%
CUAAUCUUGCUGCUACUAAAAUGUC (antisense strand not given here) [Guangzhou23],"Primary Screening (KD %, 60 ng/well, 48 h, 96 well) 293T",[1],79%
same,"Primary Screening (KD %, 60 ng/well, 48 h, 96 well) A549",[2]; A549,87%
CUAAUCUUGCUGCUACUAAdTdT [Guangzhou12],"Primary Screening (KD %, 60 ng/well, 48 h, 96 well) 293T",[1],70%
same,"Primary Screening (KD %, 60 ng/well, 48 h, 96 well) A549",[2]; A549,85%
CUGCUAAUCUUGCUGCUACUAAAAU [Guangzhou21],"Primary Screening (KD %, 60 ng/well, 48 h, 96 well) 293T",[1],81%
same,"Primary Screening (KD %, 60 ng/well, 48 h, 96 well) A549",[2]; A549,91%
CUUGCUGCUACUAAAAUGUdTdT [Guangzhou13],"Primary Screening (KD %, 60 ng/well, 48 h, 96 well) 293T",[1],76%
same,"Primary Screening (KD %, 60 ng/well, 48 h, 96 well) A549",[2]; A549,82%
GCCATTAGTGCAAAGAATA [COV4],inhibition of the virus,[3],100%
same,block of infection at the lowest concentration tested,[3],complete block of infection
same,Duplicate A % Infection,[3],6%
same,Duplicate B % Infection,[3],5%
same,Mean % infected,[3],6%
same,Mean % inhibition,[3],77%
same,Duplicate A % Inhibition,[3],70%
same,Duplicate B % Inhibition,[3],84%
same,activity in a primary screen using live virus (ranking in words),[3],best activity
GCCGCAAATTGCACAATTT [COV15],block of infection at the lowest concentration tested,[3],complete block of infection
same,Duplicate A % Infection,[3],10%
same,Duplicate B % Infection,[3],13%
same,Mean % infected,[3],11%
same,Mean % inhibition,[3],56%
same,Duplicate A % Inhibition,[3],54%
same,Duplicate B % Inhibition,[3],57%
GCUAAUCUUGCUGCUACUAAAAUGU [Guangzhou22],"Primary Screening (KD %, 60 ng/well, 48 h, 96 well) 293T",[1],83%
same,"EC50 (pg/ul, 48 h, 96 well) 293T",[1],23.2 pg/µL
same,"Primary Screening (KD %, 60 ng/well, 48 h, 96 well) A549",[2]; A549,90%
GGAAGAGCCCTAATGTGTA [COV21],block of infection at the lowest concentration tested,[3],complete block of infection
GGAAGGAAGTTCTGTTGAA [COV3],EC50 on the inhibition efficiency,[1],5.8 ng/mL
same,"Primary Screening (KD %, 60 ng/well, 48 h, 96 well) 293T",[1],89%
same,"EC50 (pg/ul, 48 h, 96 well) 293T",[1],5.8 pg/µL
same,EC50 293T cells,[1],5.8 ng/mL
same,EC50 on the inhibition efficiency,[2]; A549,0.3 ng/mL
same,"Primary Screening (KD %, 60 ng/well, 48 h, 96 well) A549",[2]; A549,89%
same,"EC50 (pg/ul, 48 h, 96 well) A549",[2]; A549,0.3 pg/µL
same,EC50 A549 cells,[2],0.3 ng/mL
same,inhibition of the virus,[3],100%
same,"inhibition, single siRNA alone",[3]; 0.041 nM alone,~48%
same,block of infection at the lowest concentration tested,[3],complete block of infection
same,Duplicate A % Infection,[3],3%
same,Duplicate B % Infection,[3],6%
same,Mean % infected,[3],5%
same,Mean % inhibition,[3],81%
same,Duplicate A % Inhibition,[3],84%
same,Duplicate B % Inhibition,[3],79%
same,activity in a primary screen using live virus (ranking in words),[3],best activity
GGACAAUCAAAAAGAGUUGdTdT [Guangzhou16],"Primary Screening (KD %, 60 ng/well, 48 h, 96 well) 293T",[1],83%
same,"EC50 (pg/ul, 48 h, 96 well) 293T",[1],20.4 pg/µL
same,"Primary Screening (KD %, 60 ng/well, 48 h, 96 well) A549",[2]; A549,80%
GGCCGCAAATTGCACAATT [COV14],block of infection at the lowest concentration tested,[3],complete block of infection
same,Duplicate A % Infection,[3],9%
same,Duplicate B % Infection,[3],8%
same,Mean % infected,[3],8%
same,Mean % inhibition,[3],66%
same,Duplicate A % Inhibition,[3],57%
same,Duplicate B % Inhibition,[3],75%
same,activity in a primary screen using live virus (ranking in words),[3],best activity
UCUGCUAAUCUUGCUGCUACUAAAA (antisense strand not given here) [Guangzhou32],"Primary Screening (KD %, 60 ng/well, 48 h, 96 well) 293T",[1],89%
same,"EC50 (pg/ul, 48 h, 96 well) 293T",[1],8 pg/µL
same,EC50 293T cells,[1],~8 ng/mL
same,"Primary Screening (KD %, 60 ng/well, 48 h, 96 well) A549",[2]; A549,90%
UGCUAAUCUUGCUGCUACUAAAAUG (antisense strand not given here) [Guangzhou25],"Primary Screening (KD %, 60 ng/well, 48 h, 96 well) 293T",[1],83%
same,"Primary Screening (KD %, 60 ng/well, 48 h, 96 well) A549",[2]; A549,90%
UUGGUGGUUUUAAUUUUUCACAAAU (antisense strand not given here) [Guangzhou31],"Primary Screening (KD %, 60 ng/well, 48 h, 96 well) 293T",[1],81%
same,"EC50 (pg/ul, 48 h, 96 well) 293T",[1],44 pg/µL
same,"Primary Screening (KD %, 60 ng/well, 48 h, 96 well) A549",[2]; A549,73%
UUUGGUGGUUUUAAUUUUUCACAAA (antisense strand not given here) [Guangzhou30],"Primary Screening (KD %, 60 ng/well, 48 h, 96 well) 293T",[1],86%
same,"Primary Screening (KD %, 60 ng/well, 48 h, 96 well) A549",[2]; A549,78%

# Source: patent publication US12006500B2 (priority 2020, dated 2024)
